Measured values taken from patent US12520840B2, “Method for reducing parasite burden in a mosquito” (PRESIDENT AND FELLOWS OF HARVARD COLLEGE, priority 2018, dated 2026).
Entries after “also recorded” stand apart in the source; their conditions may differ.

Experiments:
An. gambiae females = experiment: Survival assays of An. gambiae females after compound exposure (acute 48 h and long-term); assay type: in vivo, Anopheles gambiae; settings: for proportionate survival relative to controls: 1 mmol/m2, 60 minutes exposure, 48 h after exposure
Description: (§1) Compound Exposures. Compounds (ATQ, ACE, HYD, PYR, PER, Millipore-Sigma, St. Louis, MO, USA) to be tested were dissolved in a suitable, volatile vehicle (Table S1) at stock concentrations of 3-10 mg/ml (0.3-1% w/v). Working concentrations of each compound were created through serial dilutions. To generate a compound-coated surface, a volume of working solution containing a known quantity of compound was added to 1 ml excess vehicle and transferred to a 6 cm diameter glass petri dish ([…]). Treated dishes were placed on a lateral shaker and left for 4 h or overnight until evaporation of the volatile vehicle, coating the compound to the glass substrate. Control plates were treated identically using only the acetone vehicle. A translucent plastic cup was placed over the coated surface to contain mosquitoes during exposure. A flap was cut into the base of the cup to allow the introduction of mosquitoes. Plates were used for 1 d and discarded. For exposures, 15-25 mosquitoes were introduced through the cup flap using a mouth aspirator and incubated on the treated surface for 6-60 min depending on the experimental parameters. Exposure plates were agitated once during exposure to discourage resting on the untreated walls and base of the cup. After exposure, plates were transferred to a clean 17.5 cm^3 cage (Bugdorm™, Megaview Science. Co. Taiwan).
Survival Assays. To assess acute survival following exposure: 40, females were exposed (as described above) to ATQ, PYR, ACE, HYD permethrin (PER) for 1 h at a dosage of 1 mmol/m^2 for each compound. […] Immediately after exposure, each treatment group was transferred to a 500 ml paper cup and provided with glucose. At 48 h post exposure the proportion of surviving mosquitoes in each group was determined. Differences in survival between control and compound-exposed mosquitoes were detected using Chi^2 analysis. For long-term survival, ˜100 ATQ- or control-exposed females were placed in clean 17.5 cm^3 cages (Bugdorm™, Megaview Science. Co., Taiwan). Water and a 10% w/v glucose solution was provided ad libitum. Cages were checked daily for mortality, and dead mosquitos were removed and counted. Each experiment continued until all mosquitoes had died. Differences in median time-to-death between ATQ and control treatment groups were analyzed using a Log-Rank Mantell-Cox test.

P. falciparum = experiment: Plasmodium falciparum infection assay in An. gambiae females after tarsal exposure to a compound-coated surface (oocyst prevalence and intensity); assay type: in vivo, Plasmodium falciparum (NF54) in Anopheles gambiae; settings: for effect on prevalence of P. falciparum relative to controls / reduction of oocyst prevalence relative to controls: 1 mmol/m2, 6 minutes exposure
Description: as §1
Plasmodium falciparum Infection Assays. 5-d old An. gambiae females were exposed to compounds as described above. Immediately after exposure, females were transferred to a sealed, secure infection glovebox and provided an in vitro culture P. falciparum (NF54) gametocytes (1, 2) through a custom made, glass, water-heated membrane feeder. […] At 7-9 d post infectious blood meal (pIBM), females that had blood fed were vacuum aspirated into 80% ethanol, incubated for 10 minutes at −20° C., and transferred out of the secure feeding box into PBS on ice. Midguts were dissected out in PBS and stained with 0.2% w/v mercurochrome (in ddH2O) for 17 minutes. After staining, midguts were mounted on glass microscope slides in 0.02% w/v mercurochrome, and oocyst prevalence and intensity were determined by examination at 40× air objective on an inverted compound light microscope (Olympus Corporation, Waltham, MA).
Statistical Analysis. All statistical analyses were carried out using GraphPad Prism v7.0 for MacOSX (GraphPad Software Inc., La Jolla CA, USA). For infections, differences in prevalence were analyzed by Chi^2. In experiments where both treatment groups had individuals that produced >0 oocysts, differences in median oocyst burden between groups (intensity of infection) was analyzed using a Mann-Whitney Mean Ranks test. For multiple comparisons (e.g. FIG. 3) differences in prevalence between multiple groups were determined using pair-wise Chi^2 corrected for multiple comparisons (Bonferroni). Similarly, multiple comparisons of intensity were carried out using Wilcoxon with Dunn's post hoc. To determine IC50 from dose-response data, the mean relative inhibition (ATQ exposed prevalence/Control prevalence) was calculated for each tested dose and fit with a sigmoidal curve function using non-linear regression.

[1] = tested on: susceptible An. gambiae mosquitoes; settings: 60-minute tarsal exposure; cited from earlier work
[2] = 10 μmol/m^2, 60 minutes exposure
[3] = 1 mmol/m2, 60 minutes exposure immediately prior to infection

SMILES	proportionate survival relative to controls (An. gambiae females)	effect on prevalence of P. falciparum relative to controls (P. falciparum)	reduction of oocyst prevalence relative to controls (P. falciparum) [%]	further results
CC1(C)CNC(=NN=C(/C=C/c2ccc(C(F)(F)F)cc2)/C=C/c2ccc(C(F)(F)F)cc2)NC1 [HYD, hydramethylnon]	0.976	strongly reduced prevalence	63.9	
CC1(C)C(C=C(Cl)Cl)C1C(=O)OCc1cccc(Oc2ccccc2)c1 (stereo not shown) [permethrin]	0.055			LC50 [1]: 63 μmol/m^2
CCCCCCCCCCOc1cc2c(O)c(C(=O)OCC)cnc2cc1OCC [DEC, decoquinate]	1.084	no detectable effect on infection; also recorded: Neither compound is capable of reducing the prevalence		
CCc1nc(N)nc(N)c1-c1ccc(Cl)cc1 [PYR, pyrimethamine]	1.000			
CCCCCCCCCCCCC1=C(OC(C)=O)C(=O)c2ccccc2C1=O [ACE, acequinocyl]	1.059	strongly reduced prevalence	64.3	
O=C1C(O)=C([C@H]2CC[C@H](c3ccc(Cl)cc3)CC2)C(=O)c2ccccc21 [ATQ, atovaquone]	0.975			effect on acute or long-term survival of An. gambiae females (An. gambiae females; ATQ- vs control-exposed females, followed until death): no effect; inhibition of intensity of infection compared to controls (P. falciparum; [2]): 87.5%; inhibition of prevalence of infection compared to controls (P. falciparum; [2]): 87.6%; oocyst intensity (P. falciparum; 100 μmol/m2, 6 min exposure): 0%; prevalence of infection (P. falciparum oocysts) (P. falciparum; 100 μmol/m2, 6 min exposure): 0%; oocyst intensity (P. falciparum; 1 mmol/m2, 6 min exposure): 0%; prevalence of infection (P. falciparum oocysts) (P. falciparum; 1 mmol/m2, 6 min exposure): 0%; oocyst intensity (P. falciparum; [3]): 0%; prevalence of infection (P. falciparum oocysts) (P. falciparum; [3]): 0%; IC50 of pre-infection exposure (surface concentration; prevalence of infection) (P. falciparum; 60 minutes tarsal exposure, interpolated from dose-response curve): 1.77 μmol/m^2
